Assay results taken from the supplement of paper PMC13380429.

Experiments:
U2OS [1] = test: relative viability EC50 (midpoint between 100% and the lowest measured viability); higher = less toxic; conditions: 72 h
Vero E6 [2] = test: as above; conditions: 72 h
[3] = tested on: A549-ACE2 infected with SARS-CoV-2; test: morphology score (similarity to uninfected cells); higher = more like uninfected cells; conditions: 24 h
A549-ACE2 [4] = test: phospholipidosis EC50; higher = less potent phospholipidosis inducer
[5] = tested on: A549-ACE2 infected with SARS-CoV-2; test: cell count relative to DMSO; higher = less toxic; conditions: 24 h
[6] = tested on: A549-ACE2 infected with SARS-CoV-2; test: SARS-CoV-2 infection rate relative to DMSO; higher = more infection; conditions: 24 h
HepG2 [7] = test: drug sensitivity score (DSS) for viability; higher = more toxic; extreme values may be limits of the assay; conditions: 72 h
U2OS [8] = test: as above; conditions: 72 h
Vero E6 [9] = test: as above; conditions: 72 h
Caco-2 [10] = test: as above; conditions: 72 h
Calu-3 [11] = test: as above; conditions: 72 h
A549-ACE2 [12] = test: drug-induced phospholipidosis relative to tamoxifen; higher = more phospholipidosis
HepG2 [13] = test: cell viability relative to DMSO; higher = less toxic; conditions: 72 h
U2OS [14] = test: as above; conditions: 72 h
Vero E6 [15] = test: as above; conditions: 72 h
Caco-2 [16] = test: as above; conditions: 72 h
Calu-3 [17] = test: as above; conditions: 72 h
HepG2 [18] = test: relative viability EC50 (midpoint between 100% and the lowest measured viability); higher = less toxic; conditions: 72 h
Caco-2 [19] = test: as above; conditions: 72 h
Calu-3 [20] = test: as above; conditions: 72 h

CCSc1ccc2c(c1)N(CCCN1CCN(C)CC1)c1ccccc1S2 [thiethylperazine]
Conditions	drug sensitivity score	relative viability EC50 [µM]
Caco-2 [10]	1.6	–
Calu-3 [11]	1.5	–
HepG2 [7]	3.9	–
U2OS [1]	–	> 10
U2OS [8]	0	–
Vero E6 [2]	–	> 10
Vero E6 [9]	0.3	–

Conditions	SARS-CoV-2 infection rate [%]	cell count [%]	cell viability [%]	morphology score	phospholipidosis EC50 [µM]
A549-ACE2 [4], 24 h	–	–	–	–	3.52
A549-ACE2 [4], 48 h	–	–	–	–	5.17
A549-ACE2 [4], 72 h	–	–	–	–	6.75
Caco-2 [16], 1 nM	–	–	101	–	–
Caco-2 [16], 10 nM	–	–	95.4	–	–
Caco-2 [16], 100 nM	–	–	91.7	–	–
Caco-2 [16], 1000 nM	–	–	98.4	–	–
Caco-2 [16], 10000 nM	–	–	69.6	–	–
Calu-3 [17], 1 nM	–	–	101	–	–
Calu-3 [17], 10 nM	–	–	89.2	–	–
Calu-3 [17], 100 nM	–	–	95.9	–	–
Calu-3 [17], 1000 nM	–	–	110	–	–
Calu-3 [17], 10000 nM	–	–	59.9	–	–
HepG2 [13], 1 nM	–	–	98	–	–
HepG2 [13], 10 nM	–	–	100	–	–
HepG2 [13], 100 nM	–	–	101	–	–
HepG2 [13], 1000 nM	–	–	89.5	–	–
HepG2 [13], 10000 nM	–	–	55.6	–	–
U2OS [14], 1 nM	–	–	103	–	–
U2OS [14], 10 nM	–	–	102	–	–
U2OS [14], 100 nM	–	–	106	–	–
U2OS [14], 1000 nM	–	–	106	–	–
U2OS [14], 10000 nM	–	–	91.6	–	–
Vero E6 [15], 1 nM	–	–	97.7	–	–
Vero E6 [15], 10 nM	–	–	95.5	–	–
Vero E6 [15], 100 nM	–	–	95	–	–
Vero E6 [15], 1000 nM	–	–	102	–	–
Vero E6 [15], 10000 nM	–	–	83.2	–	–
[3], 0.3 µM	–	–	–	0.15	–
[3], 3 µM	–	–	–	0.81	–
[3], 10 µM	–	–	–	0.8	–
[3], 30 µM	–	–	–	-0.01	–
[5], 0.3 µM	–	98	–	–	–
[5], 3 µM	–	116	–	–	–
[5], 10 µM	–	122	–	–	–
[5], 30 µM	–	17	–	–	–
[6], 0.3 µM	99	–	–	–	–
[6], 3 µM	40	–	–	–	–
[6], 10 µM	12	–	–	–	–
[6], 30 µM	61	–	–	–	–

drug-induced phospholipidosis [%], A549-ACE2 [12]
Conditions	0.3 µM	0.833333 µM	3.33333 µM	6.66667 µM	10 µM	30 µM
24 h	2.75	4.77	26.3	67.4	80	53.2
48 h	3.55	4.25	19.4	77.1	97	–
72 h	4.26	5.76	19.6	70	104	–

CNc1cc(OC)c(C(=O)NC2CCN(Cc3ccccc3)C2C)cc1Cl (stereo not drawn) [nemonapride]
Conditions	drug sensitivity score	relative viability EC50 [µM]
Caco-2 [10]	0	–
Caco-2 [19]	–	> 10
Calu-3 [11]	0	–
Calu-3 [20]	–	> 10
HepG2 [7]	0.6	–
HepG2 [18]	–	> 10
U2OS [1]	–	> 10
U2OS [8]	0	–
Vero E6 [2]	–	> 10
Vero E6 [9]	0	–

Conditions	SARS-CoV-2 infection rate, [6] [%]	cell count, [5] [%]	cell viability, Caco-2 [16] [%]	cell viability, Calu-3 [17] [%]	cell viability, HepG2 [13] [%]	cell viability, U2OS [14] [%]	cell viability, Vero E6 [15] [%]	morphology score, [3]
1 nM	–	–	101	92.2	96	90.7	99.1	–
10 nM	–	–	104	98	96.1	99.4	91.9	–
100 nM	–	–	104	92.6	98.1	94.5	99.5	–
0.3 µM	100	99	–	–	–	–	–	-0.15
1000 nM	–	–	108	105	94.2	98.6	94.7	–
3 µM	61	111	–	–	–	–	–	0.69
10 µM	49	123	–	–	–	–	–	0.82
10000 nM	–	–	90.5	87.5	83.4	93.8	100	–
30 µM	16	122	–	–	–	–	–	0.86

drug-induced phospholipidosis [%], A549-ACE2 [12]
Conditions	0.3 µM	0.833333 µM	3.33333 µM	6.66667 µM	10 µM	30 µM
24 h	1.28	6.8	10.9	12.3	18.5	51
48 h	3.09	4.55	12.9	15.7	16.3	43.9
72 h	5.92	4.8	14.4	19.3	24.2	53.2
